# Test results: patent publication US20220054494A1, “METHODS FOR TREATING BLADDER AND URETHRA DYSFUNCTION AND DISEASE” (University of Pittsburgh - Of the Commonwealth System of …, priority 2019, published 2022)
# “Also recorded” adds a separate entry of the source.
# Assays:
# purines in urine = experiment: Purines in urine by mass spectrometry; assay type: in vivo, rat; conditions: aged rats, oral 8-AG 5 mg/kg/day, 6 weeks
# Procedure: Protocol 2: Purines in urine were measured by mass spectrometry using selected reaction monitoring. Urine samples were diluted 1 to 30 with water, and heavy isotope internal standards were added to each sample. Purines were separated by reversed-phase ultra-performance liquid chromatography (Waters UPLC BEH C18 column, 1.7 μm beads; 2.1×150 mm; Milford, Mass.) and quantified by selected reaction monitoring using a triple quadrupole mass spectrometer (TSQ Quantum-Ultra; THERMOFISHER SCIENTIFIC®, San Jose, Calif.) with a heated electrospray ionization source. The mobile phase was a linear gradient flow rate (300 μL/min) of 1% acetic acid in water (pH, 3; mobile phase A) and 100% methanol (mobile phase B) and was delivered with a Waters Acquity ultra-performance liquid chromatographic system. The gradient (A/B) settings were as follows: from 0 to 2 minutes, 99.6%/0.4%; from 2 to 3 minutes, to 98.0%/2.0%; from 3 to 4 minutes, to 85.0%/15.0%; and from 4 to 6.5 minutes, to 99.6%/0.4%. The instrument parameters were: sample tray temperature, 10° C.; column temperature, 50° C.; ion spray voltage, 4.0 kilovolts; ion transfer tube temperature, 350° C.; source vaporization temperature, 320° C.; Q2 CID gas, argon at 1.5 mTorr; sheath gas, nitrogen at 60 psi; auxillary gas, nitrogen at 35 psi; Q1/Q3 width, 0.7/0.7 units full-width half-maximum; scan width, 0.6 units; scan time, 0.01 seconds. […]
# Purine Metabolome Measurement: Purines in urine were measured by mass spectrometry using selected reaction monitoring.(7,13) Urine samples were diluted 1 to 30 with water, and heavy isotope internal standards were added to each sample. Purines were separated by reversed-phase ultra-performance liquid chromatography (Waters UPLC BEH C18 column, 1.7 μm beads; 2.1×150 mm; Milford, Mass.) and quantified by selected reaction monitoring using a triple quadrupole mass spectrometer (TSQ Quantum-Ultra; THERMOFISHER SCIENTIFIC®, San Jose, Calif.) with a heated electrospray ionization source. […]
# bladder smooth muscle = experiment: Transmission electron microscopy of bladder smooth muscle; assay type: in vivo, rat
# Description: Transmission electron microscopy (TEM): The other half of each urinary bladder from each group (young, aged, and aged+treatment) were fixed in cold 2.5% glutaraldehyde in 0.01 M PBS. The specimens were rinsed in PBS, post-fixed in 1% osmium tetroxide with 1% potassium ferricyanide, rinsed in PBS, dehydrated through a graded series of ethanol and propylene oxide, and embedded in POLY/BED® 812 (Luft formulations). Semi-thin (300 nm) sections were cut on a LEICA® Reichart Ultracut, stained with 0.5% toluidine blue in 1% sodium borate and examined under the light microscope. Ultrathin sections (65 nm) were stained with uranyl acetate and Reynold's lead citrate and examined on JEOL 1400 transmission electron microscope with a side mount AMT 2k digital camera (Advanced Microscopy Techniques, Danvers, Mass.).
# (§1) Transmission electron microscopy (TEM): The other half of each urinary bladder, proximal urethra, or external urethral sphincter from each group (young, aged, aged+8-AG treatment) was fixed in cold 2.5% glutaraldehyde in 0.01 M PBS. The specimens were rinsed in PBS, post-fixed in 1% osmium tetroxide with 1% potassium ferricyanide, rinsed in PBS, dehydrated through a graded series of ethanol and propylene oxide solutions, and embedded in POLY/BED® 812 (Luft formulations). Semi-thin (300 nm) sections were cut on a LEICA® Reichart Ultracut, stained with 0.5% Toluidine Blue in 1% sodium borate and examined under the light microscope. Ultrathin sections (65 nm) were stained with uranyl acetate as well as Reynold's lead citrate and examined on a JEOL 1400 transmission electron microscope with a side mount AMT 2k digital camera (Advanced Microscopy Techniques, Danvers, Mass.).
# as §1, with “Half” for “The other half”, “bladder” for “bladder, proximal urethra, or external urethral sphincter”, “borate,” for “borate”, “and” for “as well as”
# [1] = aged Fisher 344 rats, 8-AG 5 mg kg/day via drinking water, 1 month
# [2] = aged rats, oral 8-AG 5 mg/kg/day, 6 weeks
structure (smiles),measurement,setting,value
"Nc1nc2[nH]c(N)nc2c(=O)[nH]1 [8-AG, 8-Aminoguanine]",urinary hypoxanthine levels,purines in urine,significantly reduced; also recorded: levels comparable to younger rats; also recorded: normalizes; also recorded: restored to younger levels
same,urinary guanosine levels,purines in urine; compared with young rats,similar; also recorded: recovered
same,urinary levels of 8-AG,purines in urine; undetectable in untreated aged rats,restored to younger levels
same,detrusor smooth muscle morphology (separation and degeneration of cells),bladder smooth muscle; [1],restored to a younger state; also recorded: restored to levels similar to the younger state
same,swelling and disruption of smooth muscle mitochondria,bladder smooth muscle; [1],restored to a younger state; also recorded: restored to levels similar to the younger state
same,bladder smooth muscle mitochondrial abnormalities,"bladder smooth muscle; aged rats, intravesical 100 μM 8-AG plus 10 μM DEA-NONOate, daily infusion 3-6 weeks",normalized; also recorded: restored
same,detrusor smooth muscle morphology (structural anomalies),bladder smooth muscle; [2],reversed; also recorded: restored to a younger state
same,swelling and disruption of smooth muscle mitochondria,bladder smooth muscle; [2],reversed; also recorded: restored to a younger state
